Source: patent publication US9096544B2, “Therapeutic compounds” (Wayne State University, priority 2009, dated 2015)

Columns and labels:
Type in all cases: cell-based
[1] = tested on: COLO357 cells; experiment: Test I: growth inhibition of COLO357 cells (MTT); conditions: 1 μM
Method: (§1) Pancreatic cancer cell lines (COLO357, PANC-1, Capan-2, AsPc-1 cells and MiaPaCa-2 cells obtained from American Type Culture Collection; ATCC, Rockville, Md.) were treated with 1 μM 3-Cl-AHPC and compound 16 for various times. Apoptosis in cells were analyzed by flow cytometry using Annexin V-FITC binding together with propidium iodide (PI) staining (Annexin V-FITC apoptosis Detection Kit 1, BD Biosciences, San Diego, Calif.). Data acquisition was done on a FACS Calibur flow cytometer (BD) and analyzed with CellQuest software (BD Biosciences). 3-Cl-AHPC and compound 16 mediated inhibition of cell growth were determined by 3-(4,5-dimethylthiazol-2-yl)-2,5-diphenyltetrazolium bromide (MTT) assay. The cells were seeded on 96-well plates at a density of 4×10^4 cells/well in a volume of 200 μl culture medium. 1 μM AHP3 and 3-Cl-AHPC in DMSO (final concentration 0.1%) were added to the cells for various times. […] After discarding the medium, MTT precipitates were solubilized with 200 μl DMSO and the plates read on a BioTeK Synergy HT (BioTeK Instrument Inc., Vermont) at an absorbance 570 nm. […] The spheroids were stained with acridine orange/ethidium bromide staining and immediately visualized and photographed with fluorescence microscope (OLYMPUS CKX41). […] Then spheroids were visualized and photographed with a fluorescence microscope.

[2] = tested on: TF(v-SRC) cells; experiment: Annexin V-FITC binding by flow cytometry, TF(v-SRC) cells; conditions: 1 μM, varying times
Method: FIG. 3 illustrates the induction of apoptosis and cell death as assessed using Annexin V-FITC binding together with propidium iodide (PI) staining. FFMA-AML and TF(vSRC) cells were exposed to 1 μM 3-Cl-AHPC or compound 16. A) Apoptosis in FFMA-AML and TF(vSRC) cells following 24 and 48 h ARR exposure, respectively. The plots show the distribution of classes of fluorescence intensity versus cell number. The bottom left quadrant represents live cells (both annexin V-FITC and PI negative); the bottom right quadrant represents early apoptotic cells (annexin V-FITC positive but PI negative); and the top right quadrant represents late apoptotic cells (both annexin V-FITC and PI positive). B) Percentage of early apopotic Annexin V-positive cells at the indicated times. […] (p values of <0.05, <0.01 and <0.001 respectively, as determined by the t test).
Apoptosis of cells was determined by (1) acridine orange and ethidium bromide-staining to assess cells with nuclear fragmentation and chromatin condensation as previously described (Farhana L. et al., Cancer Res. 2006; 65:4909-4917) and (2) flow cytometry assessing Annexin V-FITC binding together with propidium iodide staining (Annexin V-FITC apoptosis Detection kit 1, BD Biosciences, San Diego, Calif.). Data acquisition was done on a FACS Calibur flow cytometer (BD) and analyzed with CellQuest software. […]

[3] = tested on: PANC-1 cells; experiment: Test I: growth inhibition of PANC-1 cells (MTT); conditions: 1 μM
Method: as §1

[4] = tested on: Capan-2 cells; experiment: Test I: apoptosis of Capan-2 pancreatic cancer cells (Annexin V-FITC/PI); conditions: 1 μM, 48 h
Method: as §1

[5] = tested on: AsPc-1 cells; experiment: Test I: apoptosis of AsPc-1 pancreatic cancer cells (Annexin V-FITC/PI); conditions: 1 μM, 72 h
Method: as §1

[6] = tested on: TF(v-SRC) cells; experiment: Test B: apoptosis of TF(v-SRC) cells (acridine orange/ethidium bromide, nuclear fragmentation); conditions: nuclear fragmentation, FIG. 2A/B (96 h), read-out: ED50 of apoptosis induction
Method: FIG. 2 illustrates apoptosis induction in FFMA-AML and TF(v-SRC) cells by 3-Cl-AHPC and compound 16. Cells were seeded at 1×10^4 cells/ml, grown for 24 h and then exposed to 1 μM compound 16 or 3-Cl-AHPC A) at various concentrations of the compound for 96 h and B) for increasing times of exposure. C) Induction of apoptosis by 3-Cl-AHPC, all-trans-retinoic acid, 9-cis-retinoic acid and TTNPB in FFMA-AML and TF(v-SRC) cells. The percentage of apoptotic cells was determined using acridine orange and ethidium bromide staining to determine nuclear fragmentation as described in the general biochemical and pharmacological materials and methods. The error bars represent the mean of three separate determinations +/− the standard deviation (SD).
FFMA-AML cells were obtained from a patient with a diagnosis of AML as indicated by the immunophenotyping described in Table 1. This patient was refractory to the chemotherapy regimens consisting of cytosine arabinoside given with daunomycin as well as high-dose cytosine arabinoside. Peripheral blood samples were obtained from the patient utilizing a Wayne State University Institutional Review Board approved protocol and the leukemic blasts were isolated utilizing Ficoll hypaque. The isolated leukemic cells (representing >99% of the cells) were subsequently cultured in RPMI 1640 supplemented with 10% heat-inactivated fetal bovine serum (FBS) and growth factors interleukin 3 (IL-3), granulocyte-colony stimulating factor (G-CSF), granulocyte/macrophage colony-stimulating factor (GM-CSF), and stem cell factor (SCF) as we have previously reported, and then the cells were maintained in 10% FBS and gentamycin (Zhang Y. et al., Blood, 2003; […]:3743-3752). The TF(v-SRC) leukemia cells have been previously described (Black J. H. et al., Leukemia. 2003; 17:155-159). TF(v-SRC) cells were grown in RPMI 1640 supplemented with 10% heat inactivated FBS.
Apoptosis of cells was determined by (1) acridine orange and ethidium bromide-staining to assess cells with nuclear fragmentation and chromatin condensation as previously described (Farhana L. et al., Cancer Res. 2006; 65:4909-4917) and (2) flow cytometry assessing Annexin V-FITC binding together with propidium iodide staining (Annexin V-FITC apoptosis Detection kit 1, BD Biosciences, San Diego, Calif.). Data acquisition was done on a FACS Calibur flow cytometer (BD) and analyzed with CellQuest software.
Cells were grown in the presence and absence of increasing concentrations of either 3-Cl-AHPC or compound 16 and for varying periods of time. There was a progressive increase in 3-Cl-AHPC- and compound 16-mediated apoptosis in both FFMA-AML and TF(v-SRC) cells with time and with increasing concentrations of the compounds. […] We therefore tested the sensitivity of FFMA-AML and TF(v-SRC) cells to apoptosis induction by tRA, 9-cis RA, and TTNPB (FIG. 2C).

[7] = tested on: caspase-3; experiment: Caspase-3 activation and cleavage in AML cells; conditions: FFMA-AML and TF(vSRC) cells; 1 μM; lysates
Method: FIG. 4 illustrates 3-Cl-AHPC and compound 16-mediated caspase-3 activation and cleavage of caspase-3. A) Activation of caspase-3 in FFMA-AML and TF(vSRC) cells following exposure to 1 μM 3-Cl-AHPC and compound 16 for varying times. B) Generation of the caspase-3 (17 kDa) fragment and caspase-3 protein levels (α-tubulin used as loading control). Columns represent mean of three independent experiments. […] (p value is <0.01 as determined by t test).
To further document 3-Cl-AHPC and compound 16-mediated apoptosis in the FFMA-AML and TF(v-SRC) cells, cells were exposed to 1 μM 3-Cl-AHPC or compound 16 for varying times, and then annexin V-FITC binding assessed using flow cytometry.

| SMILES | inhibition of growth [1] | annexin V-FITC-positive cells [2] | inhibition of growth [3] | cells in which induction of apoptosis was noted [4] [%] | induction of apoptosis [5] | EC50 [6] [nM] | caspase-3 activation (17-kDa cleaved caspase-3, caspase-3 activity) [7] |
| --- | --- | --- | --- | --- | --- | --- | --- |
| O=C(O)C=Cc1ccc(-c2ccc(O)c(C34CC5CC(CC(C5)C3)C4)c2)c(Cl)c1 [Compound 3-Cl-AHPC, 4-[3-(1-adamantyl)-4-hydroxyphenyl]-3-chlorocinnamic acid, reference compound] | significant inhibition of growth | progressive increase in annexin V-FITC-positive cells with time | significant inhibition of growth | 50 | Apoptosis was also noted | 750 | induced caspase-3 activation |
| O=C(O)/C=C/c1cnc(-c2ccc(O)c(C34CC5CC(CC(C5)C3)C4)c2)nc1 [Compound 16, (E)-3-[2-(3-(1-Adamantyl)-4-hydroxyphenyl)-5-pyrimidinyl]-2-propenoic acid] | significant inhibition of growth | progressive increase in annexin V-FITC-positive cells with time | significant inhibition of growth | 50 | Apoptosis was also noted | 750 | induced caspase-3 activation |
